# Test results as given in ChEMBL document CHEMBL5360636, “Hyperelatolides A-D, Antineuroinflammatory Constituents with Unusual Carbon Skeletons from Hypericum elatoides” (J Nat Prod, 2023).
# Legend:
# BV-2 [1] = test: Cytotoxicity against mouse BV-2 cells at 20 uM by MTT assay; type: toxicity, cell-based; settings: bv-2, 20 µM
# BV-2 [2] = test: Antineuroinflammatory activity in LPS-induced mouse BV-2 cells assessed as inhibition of NO production by griess assay; type: functional, cell-based
# BV-2 [3] = test: Antineuroinflammatory activity in LPS-induced mouse BV-2 cells assessed as reduction in cytoplasmic NF-kappaB protein expression by Western blot analysis; type: functional, cell-based; settings: dose 2.5-10 µM
# BV-2 [4] = test: Antineuroinflammatory activity in LPS-induced mouse BV-2 cells assessed as downregulation of COX-2 protein expression by Western blot analysis; type: functional, cell-based; settings: dose 2.5-10 µM
# BV-2 [5] = test: Antineuroinflammatory activity in LPS-induced mouse BV-2 cells assessed as downregulation of iNOS protein expression by Western blot analysis; type: functional, cell-based; settings: dose 2.5-10 µM
# BV-2 [6] = test: Antineuroinflammatory activity in LPS-induced mouse BV-2 cells assessed as reduction in nuclear NF-kappaB protein expression by Western blot analysis; type: functional, cell-based; settings: dose 2.5-10 µM
SMILES,IC50 (BV-2 [2]),Activity (BV-2 [1]),Activity (BV-2 [3]),Activity (BV-2 [4]),Activity (BV-2 [5]),Activity (BV-2 [6])
CC(=O)C[C@@H]1CCC(C)(C)C/C1=C/C1=CC(C)(C)OC1=O,> 20 µM,Non-Toxic,–,–,–,–
O=c1c(O)c(-c2ccc(O)c(O)c2)oc2cc(O)cc(O)c12 [QUERCETIN],7.41 µM,–,–,–,–,–
CC(=O)C[C@@H]1CCC(C)(C)C/C1=C/[C@H]1CC(=O)OC(C)(C)[C@H]1OC(=O)c1ccccc1,5.74 µM,Non-Toxic,Dose-Dependent Effect,Dose-Dependent Effect,Dose-Dependent Effect,Dose-Dependent Effect

# The next lines start with results.
IC50 (BV-2 [2]),SMILES,Activity (BV-2 [1]),Activity (BV-2 [3]),Activity (BV-2 [4]),Activity (BV-2 [5]),Activity (BV-2 [6])
14.9 µM,CC(=O)C[C@@H]1CCC(C)(C)C/C1=C/[C@H]1CC(=O)O[C@H]1C(C)(C)OC(=O)c1ccccc1,Non-Toxic,–,–,–,–
19.5 µM,COc1ccc2c(c1)c(CC(=O)O)c(C)n2C(=O)c1ccc(Cl)cc1 [INDOMETHACIN],–,–,–,–,–
2.83 µM,C[C@@H]1C[C@H]2[C@@H]3CCC4=CC(=O)C=C[C@]4(C)[C@@]3(F)[C@@H](O)C[C@]2(C)[C@@]1(O)C(=O)CO [DEXAMETHASONE],–,–,–,–,–
7.35 µM,CC(=O)C[C@@H]1CCC(C)(C)C/C1=C/[C@H]1CC(=O)OC(C)(C)[C@@H]1OC(=O)c1ccccc1,Non-Toxic,–,–,–,–
